Laboratory results taken from article PMC12460146, “Impact of metabolic enzyme activity variability on dabrafenib disposition” (Frontiers in Pharmacology, 2025).
“Also recorded” adds a separate entry of the source.

Tests used:
CYP3A4.8 = molecular target: T1, CYP3A4.8 (Homo sapiens, UniProt P08684, R130Q); experiment: In vitro enzyme kinetics assay using CYP3A4 baculosomes: CYP3A4.8; format: in vitro ADME
T1 construct: made in house; host or cells: insect cells (baculovirus, pFastBac-Dual)
Experimental: (§1) Recombinant CYP3A4 and CYPb5 proteins were prepared according to our previously established protocol ([Fang et al., 2017]). Briefly, dual expression vectors (pFastBac-Dual) were used to construct CYP3A4-CYPOR and CYPb5-CYPOR expression plasmids. Subsequently, the corresponding baculosomes were harvested by ultracentrifugation using the baculovirus-insect cell expression system, and the target proteins were confirmed. Protein expression levels for each type were qualitatively and quantitatively assessed by Western blotting and BCA assay, respectively.
(§2) The 200 µL incubation system comprised 0.1 M Tris-HCl, 5 µg CYP3A4.1 or other CYP3A4 variants, 5 µg CYPb5, 1 mM NADPH, and dabrafenib. A dabrafenib concentration of 10 µM was used to evaluate variant specific metabolic activity. Michaelis-Menten kinetics were assessed using dabrafenib concentrations of 5, 10, 20, 50, 100, and 250 µM. Subsequent processing steps followed the procedures outlined in Section 2.3.

CYP3A4.1 = molecular target: T2, CYP3A4.1 (Homo sapiens, UniProt P08684); experiment: In vitro enzyme kinetics assay using CYP3A4 baculosomes: CYP3A4.1; format: in vitro ADME; settings: dabrafenib 5–250 µM
T2 construct: made in house; host or cells: insect cells (baculovirus, pFastBac-Dual)
T2 sequence (P08684 whole entry): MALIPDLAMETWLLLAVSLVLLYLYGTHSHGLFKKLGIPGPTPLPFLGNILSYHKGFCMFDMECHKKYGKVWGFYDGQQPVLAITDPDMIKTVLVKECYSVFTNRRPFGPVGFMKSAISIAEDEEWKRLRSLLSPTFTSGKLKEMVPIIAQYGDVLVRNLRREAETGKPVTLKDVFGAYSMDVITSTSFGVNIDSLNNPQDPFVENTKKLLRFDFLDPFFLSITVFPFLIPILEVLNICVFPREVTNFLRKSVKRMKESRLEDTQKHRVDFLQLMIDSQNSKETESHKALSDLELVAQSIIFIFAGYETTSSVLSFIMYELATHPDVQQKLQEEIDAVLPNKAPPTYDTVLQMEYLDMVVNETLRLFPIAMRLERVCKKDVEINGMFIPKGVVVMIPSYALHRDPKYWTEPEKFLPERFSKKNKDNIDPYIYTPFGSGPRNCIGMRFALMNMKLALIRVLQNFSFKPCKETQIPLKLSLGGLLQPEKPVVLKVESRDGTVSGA
Experimental: as §1, §2

[1] = system: human liver microsomes (HLM); experiment: Michaelis-Menten kinetics of dabrafenib metabolism (hydroxy-dabrafenib formation) in HLM; format: in vitro ADME; settings: HLM 0.5 mg/mL, dabrafenib 0.5–200 µM
Experimental: (§3) The 200 µL incubation system contained 0.1 M Tris-HCl (pH = 7.6), 0.5 mg/mL RLM or HLM, 1 mM NADPH, and dabrafenib. […] Carbamazepine (100 ng/mL) was added as the IS. […] Hydroxy-dabrafenib concentrations were quantified via UPLC-MS/MS.
(§4) For kinetic studies, Michaelis-Menten curves were obtained using dabrafenib concentrations (0.5–200 µM) in RLM and HLM. Samples were processed as above. Curves were plotted (dabrafenib concentration vs. V) and fitted nonlinearly (Prism 9, GraphPad).
The concentrations of dabrafenib and hydroxy-dabrafenib were quantified by UPLC-MS/MS. Chromatographic separation was performed on a Waters Acquity UPLC BEH C18 column (2.1 mm × 50 mm, 1.7 µm particle size) maintained at 40 °C. The mobile phase consisted of 0.1% aqueous formic acid (A) and acetonitrile (B), delivered at 0.3 mL/min with the following gradient program: 90% A (0–0.15 min), linear transition to 10% A (0.15–0.8 min), 10% A (0.8–1.5 min), and return to 90% A (1.5–2 min). Total run time was 2 min. Detection employed a Waters Xevo TQS triple quadrupole mass spectrometer (Milford, MA, United States) operated in positive-ion multiple reaction monitoring mode. Quantification transitions were m/z 520.10 → 307.20 for dabrafenib, m/z 536.20 → 323.10 for hydroxy-dabrafenib, and m/z 237.10 → 194.10 for IS.

CYP3A4.28 = molecular target: T3, CYP3A4.28 (Homo sapiens, UniProt P08684, L22V); experiment: In vitro enzyme kinetics assay using CYP3A4 baculosomes: CYP3A4.28; format: in vitro ADME
T3 construct: made in house; host or cells: insect cells (baculovirus, pFastBac-Dual)
T3 sequence (P08684 whole entry L22V): as the sequence (P08684 whole entry) above, with L22V counted along it
Experimental: as §1, §2

[2] = system: rat liver microsomes (RLM); experiment: Michaelis-Menten kinetics of dabrafenib metabolism (hydroxy-dabrafenib formation) in RLM; format: in vitro ADME; settings: RLM 0.5 mg/mL, dabrafenib 0.5–200 µM
Experimental: RLM was obtained according to established methods ([Wang et al., 2015]). Briefly, rat livers were weighed and homogenized in ice-cold phosphate buffer containing […] sucrose. The homogenate was centrifuged at 17,000 × g for 15 min at 4 °C. The supernatant was transferred to new tubes and recentrifuged at 17,000 × g for 15 min. The resulting supernatant was then ultracentrifuged at 100,000 × g for 60 min at 4 °C. The microsomal pellet was resuspended in ice-cold 0.01 mmol/L PBS (pH = 7.2–7.4). Protein concentration was determined using a Bradford assay kit (Thermo Scientific, Waltham, MA, United States).
as §3, §4
The concentrations of dabrafenib and hydroxy-dabrafenib were quantified by UPLC-MS/MS. […] Quantification transitions were m/z 520.10 → 307.20 for dabrafenib, m/z 536.20 → 323.10 for hydroxy-dabrafenib, and m/z 237.10 → 194.10 for IS.

CYP3A4.20 = molecular target: T4, CYP3A4.20 (Homo sapiens, UniProt P08684); experiment: In vitro enzyme kinetics assay using CYP3A4 baculosomes: CYP3A4.20; format: in vitro ADME
T4 construct: made in house; host or cells: insect cells (baculovirus, pFastBac-Dual)
T4 sequence (P08684 with tags, fused parts or gaps limits assumed): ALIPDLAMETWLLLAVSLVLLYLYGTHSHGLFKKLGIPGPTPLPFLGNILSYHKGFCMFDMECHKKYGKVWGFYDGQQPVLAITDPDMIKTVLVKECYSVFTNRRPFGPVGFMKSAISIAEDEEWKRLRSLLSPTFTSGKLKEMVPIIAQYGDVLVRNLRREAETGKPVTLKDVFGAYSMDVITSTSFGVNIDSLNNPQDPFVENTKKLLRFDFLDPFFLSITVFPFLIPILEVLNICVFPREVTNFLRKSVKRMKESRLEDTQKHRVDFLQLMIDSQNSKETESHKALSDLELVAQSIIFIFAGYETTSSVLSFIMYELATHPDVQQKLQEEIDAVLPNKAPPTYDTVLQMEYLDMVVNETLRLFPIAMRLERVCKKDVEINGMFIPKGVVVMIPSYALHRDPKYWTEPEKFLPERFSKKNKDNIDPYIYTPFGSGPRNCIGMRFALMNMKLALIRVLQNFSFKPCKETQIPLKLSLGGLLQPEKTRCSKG
Experimental: as §1, §2

[3] = cited from earlier work

T1 sequence (P08684 whole entry R130Q): as the sequence (P08684 whole entry) above, with R130Q counted along it

SMILES: CC(C)(C)c1nc(-c2cccc(NS(=O)(=O)c3c(F)cccc3F)c2F)c(-c2ccnc(N)n2)s1 [Dabrafenib]
- decrease of relative clearance vs CYP3A4.1 (CYP3A4.8): 66.67%
- Vmax (CYP3A4.8; dabrafenib 5–250 µM): 0.247 ± 0.030 pmoL/L/min/μg CYP3A4
- Vmax (CYP3A4.1): 0.266 ± 0.007 pmoL/L/min/μg CYP3A4
- Km [1]: 3.5 ± 0.56 µM
- Vmax [1]: 0.16 ± 0.001 pmol/L/min/µg
- increase of relative clearance vs CYP3A4.1 (CYP3A4.28): 26.67%
- Vmax (CYP3A4.28; dabrafenib 5–250 µM): 0.362 ± 0.026 pmoL/L/min/μg CYP3A4
- Km [2]: 14.6 ± 3.08 µM
- Vmax [2]: 0.14 ± 0.01 pmol/L/min/µg
- metabolic activity toward dabrafenib (in words) (CYP3A4.20): nearly complete loss of activity; also recorded: lack catalytic activity
- Cmax ([3]; single 150 mg oral dose, clinical, ref Puszkiel et al., 2019, Balakirouchenane et al., 2021): 2,160 ng/mL
- oral bioavailability (F) ([3]; single-dose administration, ref Denton et al., 2013): 95%
